Test results taken from ChEMBL document CHEMBL3621091, “Optimisation of a triazolopyridine based histone demethylase inhibitor yields a potent and selective KDM2A (FBXL11) inhibitor” (Medchemcomm, 2014).

Tests used:
Assay type in all cases: physicochemical
Conditions in all cases: read-out: Peff
[1] = Membrane permeability of the compound at pH 7.4 by PAMPA
[2] = Membrane permeability of the compound at pH 6.2 by PAMPA
[3] = Membrane permeability of the compound at pH 5 by PAMPA

Row | Papp [1] | Papp [2] | Papp [3] | SMILES
1 | 0.69 ×10⁻⁶ cm/s | 0.41 ×10⁻⁶ cm/s | 1.9 ×10⁻⁶ cm/s | O=C(O)c1ccnc(-c2cn([C@@H]3CCCN(C(=O)c4ccccc4)C3)nn2)c1
2 | 52 ×10⁻⁶ cm/s | 45 ×10⁻⁶ cm/s | 56 ×10⁻⁶ cm/s | COC(=O)c1ccnc(-c2cn([C@@H]3CCCN(C(=O)c4ccccc4)C3)nn2)c1
